Test results reported in patent US10829520B2, “Beta-hairpin peptidomimetics” (POLYPHOR AG, priority 2015, dated 2020).
Where a SMILES comes first, the peptide text is derived from it. Bridges are numbered along the chain shown (N, C = ends). Roman numbers before positions name the chains, in order. [ ]: non-standard residue; d: D form. NMeDab = CN[C@@H](CCN)C(=O)O; Tle = CC(C)(C)[C@H](N)C(=O)O; dDab = NCC[C@@H](N)C(=O)O; Nle = CCCC[C@H](N)C(=O)O; Orn = NCCC[C@H](N)C(=O)O; Dab = NCC[C@H](N)C(=O)O; Sar = CNCC(=O)O

Key:
Type in all cases: cell-based
[1] = test system: Acinetobacter baumannii 872842; details: 872842
[2] = test system: Acinetobacter baumannii DSM 30008; details: DSM 30008
Outline: (§1)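 Antibacterial activity is measured as MIC (μg/mL) by standard CLSI microdilution. Inocula of about 10^6 CFU/mL in MH-II broth meet two-fold peptide dilutions in medium with 0.002% Polysorbate 80, and growth is scored visually after 18-20 hours at 35° C.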

Escherichia coli 926415 = details: 926415
[3] = test system: Escherichia coli ATCC 25922; details: ATCC 25922
Outline: as §1

[4] = test system: Klebsiella pneumoniae 968733; details: 968733
[5] = test system: Klebsiella pneumoniae SSI #3010; details: SSI #3010
Outline: as §1

[6] = test system: Pseudomonas aeruginosa ATCC 27853; details: ATCC 27853
Outline: as §1

[7] = test system: human red blood cells (hRBC); assay: Hemolysis of human red blood cells; details: red cells of human, 1 h
Outline: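 Percent hemolysis = OD540 of peptide-treated supernatant relative to the 2.5% Triton X-100 (100%) control, PBS containing 0.001% acetic acid defining 0%. Peptides tested at 100 μg/mL against 20% (v/v) washed human RBC, 1 h, 37 °C, 300 rpm.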

SMILES	Acinetobacter baumannii 872842 MIC [1] [µg/mL]	Acinetobacter baumannii DSM 30008 MIC [2] [µg/mL]	Escherichia coli 926415 MIC (Escherichia coli 926415) [µg/mL]	Escherichia coli ATCC 25922 MIC [3] [µg/mL]	Klebsiella pneumoniae 968733 MIC [4] [µg/mL]	Klebsiella pneumoniae SSI #3010 MIC [5] [µg/mL]	Pseudomonas aeruginosa ATCC 27853 MIC [6] [µg/mL]	Hemolysis at 100 μg/mL [7]; 100 [%]	Hemolysis at 100 μg/mL ([7]; 100 μg/mL) [%]
CCCC[C@@H]1NC(=O)[C@@H]2CCCN2C(=O)[C@H]2CCCN2C(=O)[C@H](CO)NC(=O)[C@H](C)NC(=O)[C@H](C(C)(C)C)NC(=O)[C@H](CCN)NC(=O)[C@H](Cc2c[nH]c3ccccc23)NC(=O)[C@H](CCN)NC(=O)[C@@H](CCN)NC(=O)[C@H](CC(=O)N(C)[C@@H](CCN)C(=O)N[C@H]2CCNC(=O)[C@H]([C@@H](C)O)NC(=O)[C@H](CCN)NC(=O)[C@H](CCN)NC(=O)[C@H](CC(C)C)NC(=O)[C@@H](Cc3ccccc3)NC(=O)[C@H](CCN)NC2=O)NC(=O)[C@H](CCN)NC(=O)[C@H](Cc2ccc(O)cc2)NC(=O)[C@H](CO)NC1=O [Ex. 69] (I: cyclo([Nle]SY[Dab]D[dDab][Dab]W[Dab][Tle]AS[dP]P) / II: [NMeDab][Dab][Dab][dF]L[Dab][Dab]T; amide I:5-II:N; lactam II:2-II:C)	4	1	2	0.5	2	1	1	2	
CCCC[C@@H]1NC(=O)[C@@H]2CCCN2C(=O)[C@H]2CCCN2C(=O)[C@H](C(C)C)NC(=O)[C@H](C)NC(=O)[C@H](Cc2ccc(O)cc2)NC(=O)[C@@H](NC(=O)[C@H](Cc2c[nH]c3ccccc23)NC(C)=O)CSSC[C@@H](C(=O)N[C@@H](CCCN)C(=O)N[C@@H](CCN)C(=O)N[C@H]2CCNC(=O)[C@H]([C@@H](C)O)NC(=O)[C@H](CCN)NC(=O)[C@H](CCN)NC(=O)[C@H](CC(C)C)NC(=O)[C@@H](Cc3ccccc3)NC(=O)[C@H](CCN)NC2=O)NC(=O)[C@H](Cc2ccc(O)cc2)NC(=O)[C@H](CO)NC1=O [Ex. 52] (Ac-WCYAV[dP]P[Nle]SYC[Orn][Dab][Dab][Dab][dF]L[Dab][Dab]T; disulfide 2-11; lactam 14-C)	4	0.5	3	0.5	2	0.5	4		2
CC(=O)N[C@@H](CC(C)C)C(=O)N[C@@H](CO)C(=O)N[C@H](C(=O)N[C@H]1CSSC[C@@H](C(=O)N[C@@H](Cc2ccc(O)cc2)C(=O)N[C@@H](CC(N)=O)C(=O)N[C@@H](CCCN)C(=O)N[C@H](CCN)C(=O)N[C@@H](CCN)C(=O)N[C@@H](CCN)C(=O)N[C@H]2CCNC(=O)[C@H]([C@@H](C)O)NC(=O)[C@H](CCN)NC(=O)[C@H](CCN)NC(=O)[C@H](CC(C)C)NC(=O)[C@@H](Cc3ccccc3)NC(=O)[C@H](CCN)NC2=O)NC(=O)[C@H](CC(C)C)NC(=O)[C@H](CCCNC(=N)N)NC(=O)[C@@H](CCN)NC(=O)[C@H](C(C)C)NC1=O)C(C)(C)C [Ex. 171] (Ac-LS[Tle]CV[dDab]RLCYN[Orn][dDab][Dab][Dab][Dab][Dab][dF]L[Dab][Dab]T; disulfide 4-9; lactam 16-C)	2	2	2	1	4	1	0.5		2
CCCC[C@@H]1NC(=O)[C@@H]2CCCN2C(=O)[C@H]2CCCN2C(=O)[C@H](CO)NC(=O)[C@H](C)NC(=O)[C@H](C(C)(C)C)NC(=O)[C@@H](NC(=O)[C@H](Cc2c[nH]c3ccccc23)NC(C)=O)CSSC[C@@H](C(=O)N[C@@H](CCCN)C(=O)N[C@H](C(=O)N[C@@H](CCN)C(=O)N[C@H]2CCNC(=O)[C@H]([C@@H](C)O)NC(=O)[C@H](CCN)NC(=O)[C@H](CCN)NC(=O)[C@H](CC(C)C)NC(=O)[C@@H](Cc3ccccc3)NC(=O)[C@H](CCN)NC2=O)[C@@H](C)O)NC(=O)[C@H](Cc2ccc(O)cc2)NC(=O)[C@H](CO)NC1=O [Ex. 13] (Ac-WC[Tle]AS[dP]P[Nle]SYC[Orn]T[Dab][Dab][Dab][dF]L[Dab][Dab]T; disulfide 2-11; lactam 15-C)	0.25	0.125	0.5	0.5	1	0.5	0.5		1
CCCC[C@@H]1NC(=O)[C@@H]2CCCN2C(=O)[C@H]2CCCN2C(=O)[C@H](CO)NC(=O)[C@H](C)NC(=O)[C@H](C(C)(C)C)NC(=O)[C@H](CCN)NC(=O)[C@H](Cc2c[nH]c3ccccc23)NC(=O)[C@@H](NC(C)=O)CSSC[C@@H](C(=O)N[C@@H](CCN)C(=O)N[C@H]2CCNC(=O)[C@H]([C@@H](C)O)NC(=O)[C@H](CCN)NC(=O)[C@H](CCN)NC(=O)[C@H](CC(C)C)NC(=O)[C@@H](Cc3ccccc3)NC(=O)[C@H](CCN)NC2=O)NC(=O)[C@H](CCCN)NC(=O)[C@H](CCN)NC(=O)[C@H](Cc2ccc(O)cc2)NC(=O)[C@H](CO)NC1=O [Ex. 57] (Ac-CW[Dab][Tle]AS[dP]P[Nle]SY[Dab][Orn]C[Dab][Dab][Dab][dF]L[Dab][Dab]T; disulfide 1-14; lactam 16-C)	4	1	1	0.25	8	0.25	0.5		<1
CCCC[C@@H]1NC(=O)[C@@H]2CCCN2C(=O)[C@H]2CCCN2C(=O)[C@H](CO)NC(=O)[C@H](C)NC(=O)[C@H](C(C)(C)C)NC(=O)[C@@H](NC(=O)[C@H](Cc2c[nH]c3ccccc23)NC(C)=O)CSSC[C@@H](C(=O)N[C@@H](C)C(=O)N[C@@H](CCN)C(=O)N[C@H](C(=O)N[C@@H](CCN)C(=O)N[C@H]2CCNC(=O)[C@H]([C@@H](C)O)NC(=O)[C@H](CCN)NC(=O)[C@H](CCN)NC(=O)[C@H](CC(C)C)NC(=O)[C@@H](Cc3ccccc3)NC(=O)[C@H](CCN)NC2=O)[C@@H](C)O)NC(=O)[C@H](Cc2ccc(O)cc2)NC(=O)[C@H](CO)NC1=O [Ex. 28] (Ac-WC[Tle]AS[dP]P[Nle]SYCA[Dab]T[Dab][Dab][Dab][dF]L[Dab][Dab]T; disulfide 2-11; lactam 16-C)	1	0.5	1.5	0.25	0.375	0.25	0.5		1
CNCC(=O)N[C@@H](Cc1c[nH]c2ccccc12)C(=O)N[C@H]1CSSC[C@@H](C(=O)N(C)CC(=O)N[C@@H](CCN)C(=O)N[C@H](C(=O)N[C@@H](CCN)C(=O)N[C@H]2CCNC(=O)[C@H]([C@@H](C)O)NC(=O)[C@H](CCN)NC(=O)[C@H](CCN)NC(=O)[C@H](CC(C)C)NC(=O)[C@@H](CC(C)C)NC(=O)[C@H](CCN)NC2=O)[C@@H](C)O)NC(=O)[C@H](Cc2ccc(O)cc2)NC(=O)[C@H](CO)NC(=O)[C@H](CC(C)C)NC(=O)[C@@H]2CCCN2C(=O)[C@H]2CCCN2C(=O)[C@H](CCN)NC(=O)[C@H](C)NC(=O)[C@H](C(C)C)NC1=O [Ex. 185] (H-[Sar]WCVA[Dab][dP]PLSYC[Sar][Dab]T[Dab][Dab][Dab][dL]L[Dab][Dab]T; disulfide 3-12; lactam 17-C)	1	0.25	2	0.25	8	1	1		1
CC(=O)N[C@@H](Cc1c[nH]c2ccccc12)C(=O)N[C@H]1CSSC[C@@H](C(=O)N[C@@H](CCCN)C(=O)N[C@H](C(=O)N[C@@H](CCN)C(=O)N[C@H]2CCNC(=O)[C@H]([C@@H](C)O)NC(=O)[C@H](CCN)NC(=O)[C@H](CCN)NC(=O)[C@H](CC(C)C)NC(=O)[C@@H](Cc3ccccc3)NC(=O)[C@H](CCN)NC2=O)[C@@H](C)O)NC(=O)[C@H](Cc2ccc(O)cc2)NC(=O)[C@H](CO)NC(=O)[C@H]([C@@H](C)O)NC(=O)[C@@H]2CCCN2C(=O)[C@H]2CCCN2C(=O)[C@H](CC(C)C)NC(=O)[C@H](C)NC(=O)[C@H](C(C)(C)C)NC1=O [Ex. 118] (Ac-WC[Tle]AL[dP]PTSYC[Orn]T[Dab][Dab][Dab][dF]L[Dab][Dab]T; disulfide 2-11; lactam 15-C)	0.25	0.25	0.5	0.5	0.5	0.5	2		2
